Results as given in patent US12180198B2, “Ribocil C antibiotics effective for Gram-negative pathogens” (THE BOARD OF TRUSTEES OF THE UNIVERSITY OF ILLINOIS, priority 2018, dated 2024).
Counter-ions that a name gives are not always drawn. Like-named read-outs stand apart in the source and are kept apart here.

Experiments:
Format in all cases: cell-based
E. coli BAA-2469 [1] = assay: Bioactivity against exemplary strains of bacteria (Table 5A); parameters: unit not given here; details: Strain 2: E. coli BAA-2469
K. pneumoniae BAA-2146 = assay: as above; details: Strain 4: K. pneumoniae BAA-2146
K. pneumoniae BAA-1705 = assay: MIC, micro-dilution broth method; details: Klebsiella pneumoniae, BAA1705
Experimental: (§1) Compounds were evaluated against a panel of Gram-positive and Gram-negative organisms. MIC values were determined using the micro-dilution broth method as outlined by the Clinical and Laboratory Standards Institute (clsi.org/) and are listed in […]. All experiments were performed in biological triplicate.
(§2) Antimicrobial susceptibility tests. Susceptibility testing was performed in biological triplicate, using the micro-dilution broth method as outlined by the Clinical and Laboratory Standards Institute. Bacteria were cultured with cation-adjusted Muller-Hinton broth (Sigma-Aldrich, Cat #90922) in round-bottom 96-well plates (Corning, Cat #3788). Human serum (pooled gender, 0.2 μm filtered) was purchased from BioIVT (Hicksville, NY).

A. baumannii KB357 = assay: MIC, micro-dilution broth method; details: Acinetobacter baumannii
Experimental: as §1, §2

P. aeruginosa PA01 = assay: MIC, micro-dilution broth method; details: Pseudomonas aeruginosa
Experimental: as §1, §2

K. pneumoniae S20595 = assay: MIC, micro-dilution broth method; details: Klebsiella pneumoniae
Experimental: as §1, §2

K. pneumoniae S47889 = assay: MIC, micro-dilution broth method; details: Klebsiella pneumoniae
Experimental: as §1, §2

K. pneumoniae M14723 = assay: MIC, micro-dilution broth method; details: Klebsiella pneumoniae
Experimental: as §1, §2

E. coli ΔrfaC JW3596 = assay: MIC, micro-dilution broth method; details: Escherichia coli
Experimental: as §1, §2

K. pneumoniae AR-0347 = assay: MIC, micro-dilution broth method; details: Klebsiella pneumoniae, AR0347
Experimental: as §1, §2

K. pneumoniae BAA-2473 = assay: MIC, micro-dilution broth method; details: Klebsiella pneumoniae, BAA2473
Experimental: as §1, §2

E. coli ΔtolC JW5503 = assay: MIC, micro-dilution broth method; details: Escherichia coli
Experimental: as §1, §2

A. baumannii WO22 = assay: MIC, micro-dilution broth method; details: Acinetobacter baumannii
Experimental: as §1, §2

A. baumannii KB343 = assay: MIC, micro-dilution broth method; details: Acinetobacter baumannii
Experimental: as §1, §2

E. coli AR-0349 = assay: MIC, micro-dilution broth method; details: Escherichia coli, AR0349
Experimental: as §1, §2

E. coli AR-0346 = assay: MIC, micro-dilution broth method; details: Escherichia coli, AR0346
Experimental: as §1, §2

E. coli M66623 = assay: MIC, micro-dilution broth method; details: Escherichia coli
Experimental: as §1, §2

S. aureus ATCC 29213 = assay: MIC, micro-dilution broth method; details: for increase in MIC in the presence of serum: S. aureus ATCC 29213, +50% human serum vs none
Experimental: as §1, §2

E. cloacae BAA-2468 = assay: MIC, micro-dilution broth method; details: Enterobacter cloacae, BAA2468
Experimental: as §1, §2

K. pneumoniae BAA-2470 = assay: MIC, micro-dilution broth method; details: Klebsiella pneumoniae, BAA2470
Experimental: as §1, §2

E. coli AR-0495 = assay: MIC, micro-dilution broth method; details: Escherichia coli, AR0495
Experimental: as §1, §2

A. baumannii F19521 = assay: MIC, micro-dilution broth method; details: Acinetobacter baumannii
Experimental: as §1, §2

E. coli MG1655 = assay: MIC, micro-dilution broth method; details: Escherichia coli
Experimental: as §1, §2

K. pneumoniae BAA-2472 = assay: MIC, micro-dilution broth method; details: Klebsiella pneumoniae, BAA2472
Experimental: as §1, §2

A. baumannii W41979 = assay: MIC, micro-dilution broth method; details: Acinetobacter baumannii
Experimental: as §1, §2

A. baumannii M13100 = assay: MIC, micro-dilution broth method; details: Acinetobacter baumannii
Experimental: as §1, §2

K. pneumoniae BAA-2342 = assay: MIC, micro-dilution broth method; details: Klebsiella pneumoniae, BAA2342
Experimental: as §1, §2

E. cloacae S28901.1 = assay: MIC, micro-dilution broth method; details: Enterobacter cloacae
Experimental: as §1, §2

E. coli AR-0493 = assay: MIC, micro-dilution broth method; details: Escherichia coli, AR0493
Experimental: as §1, §2

E. coli BAA-2340 = assay: MIC, micro-dilution broth method; details: Escherichia coli, BAA2340
Experimental: as §1, §2

E. coli BAA-2469 [2] = assay: MIC, micro-dilution broth method; details: Escherichia coli, BAA2469
Experimental: as §1, §2

K. pneumoniae M67198 = assay: MIC, micro-dilution broth method; details: Klebsiella pneumoniae
Experimental: as §1, §2

E. cloacae BAA-2341 = assay: MIC, micro-dilution broth method; details: Enterobacter cloacae, BAA2341
Experimental: as §1, §2

E. cloacae ATCC 29893 = assay: MIC, micro-dilution broth method; details: Enterobacter cloacae, ATCC29893
Experimental: as §1, §2

K. pneumoniae M67297 = assay: MIC, micro-dilution broth method; details: Klebsiella pneumoniae
Experimental: as §1, §2

E. coli BAA-2471 = assay: MIC, micro-dilution broth method; details: Escherichia coli, BAA2471
Experimental: as §1, §2

E. coli F20987 = assay: MIC, micro-dilution broth method; details: Escherichia coli
Experimental: as §1, §2

A. baumannii KB304 = assay: MIC, micro-dilution broth method; details: Acinetobacter baumannii
Experimental: as §1, §2

Cc1c(CN(C)C(=O)/C=C/c2cnc3c(c2)CCC(=O)N3)oc2ccccc12 [Debio-1452, (E)-N-methyl-N-((3-methylbenzofuran-2-yl)methyl)-3-(7-oxo-5,6,7,8-tetrahydro-1,8-naphthyridin-3-yl)acrylamide, reference compound]
8 mg/L: MIC (K. pneumoniae BAA-2470; K. pneumoniae BAA-2470, read-out: MIC) | MIC (E. coli AR-0495; E. coli AR-0495, read-out: MIC) | MIC (E. coli BAA-2471; E. coli BAA-2471, read-out: MIC)
0.031 mg/L: MIC (E. coli ΔtolC JW5503)
>32: Bioactivity (E. coli BAA-2469 [1]) | Bioactivity (K. pneumoniae BAA-2146)
8 fold: increase in MIC in the presence of serum (S. aureus ATCC 29213)
0.5 mg/L: MIC (E. coli ΔrfaC JW3596)
0.008 to 0.016 mg/L: MIC (S. aureus ATCC 29213; S. aureus ATCC 29213)
0.008 mg/L: MIC (S. aureus ATCC 29213; Staphylococcus aureus, ATCC29213, S. aureus ATCC 29213, read-out: MIC)
0.125 mg/L: MIC (S. aureus ATCC 29213; Staphylococcus aureus, ATCC29213, S. aureus ATCC 29213 (+50% Human serum), read-out: MIC)
> 32 mg/L: MIC (K. pneumoniae BAA-1705; K. pneumoniae BAA-1705, read-out: MIC) | MIC (A. baumannii KB357; A. baumannii KB357, read-out: MIC) | MIC (P. aeruginosa PA01; P. aeruginosa PA01, read-out: MIC) | MIC (K. pneumoniae S20595; K. pneumoniae S20595, read-out: MIC) | MIC (K. pneumoniae S47889; K. pneumoniae S47889, read-out: MIC) | MIC (K. pneumoniae M14723; K. pneumoniae M14723, read-out: MIC) | MIC (K. pneumoniae AR-0347; K. pneumoniae AR-0347, read-out: MIC) | MIC (K. pneumoniae BAA-2473; K. pneumoniae BAA-2473, read-out: MIC) | MIC (A. baumannii WO22; A. baumannii WO22, read-out: MIC) | MIC (A. baumannii KB343; A. baumannii KB343, read-out: MIC) | MIC (E. coli AR-0346; E. coli AR-0346, read-out: MIC) | MIC (E. coli M66623; E. coli M66623, read-out: MIC) | MIC (E. cloacae BAA-2468; E. cloacae BAA-2468, read-out: MIC) | MIC (A. baumannii F19521; A. baumannii F19521, read-out: MIC) | MIC (E. coli MG1655; E. coli MG1655, read-out: MIC) | MIC (K. pneumoniae BAA-2472; K. pneumoniae BAA-2472, read-out: MIC) | MIC (A. baumannii W41979; A. baumannii W41979, read-out: MIC) | MIC (A. baumannii M13100; A. baumannii M13100, read-out: MIC) | MIC (K. pneumoniae BAA-2342; K. pneumoniae BAA-2342, read-out: MIC) | MIC (E. cloacae S28901.1; E. cloacae S28901.1, read-out: MIC) | MIC (E. coli AR-0493; E. coli AR-0493, read-out: MIC) | MIC (E. coli BAA-2340; E. coli BAA-2340, read-out: MIC) | MIC (K. pneumoniae M67198; K. pneumoniae M67198, read-out: MIC) | MIC (E. cloacae BAA-2341; E. cloacae BAA-2341, read-out: MIC) | MIC (E. cloacae ATCC 29893; E. cloacae ATCC 29893, read-out: MIC) | MIC (K. pneumoniae M67297; K. pneumoniae M67297, read-out: MIC) | MIC (E. coli F20987; E. coli F20987, read-out: MIC) | MIC (A. baumannii KB304; A. baumannii KB304, read-out: MIC)
4 mg/L: MIC (E. coli AR-0349; E. coli AR-0349, read-out: MIC) | MIC (E. coli BAA-2469 [2]; E. coli BAA-2469, read-out: MIC)

Cc1c(CN(C)C(=O)/C=C/c2cnc3c(c2)CC(N)C(=O)N3)oc2ccccc12 (stereo not drawn) [Debio-1452-NH3, (E)-3-(6-amino-7-oxo-5,6,7,8-tetrahydro-1,8-naphthyridin-3-yl)-N-methyl-N-((3-methylbenzofuran-2-yl)methyl)acrylamide hydrochloride]
16 mg/L: MIC (K. pneumoniae S20595; S20595) | MIC (K. pneumoniae M14723; M14723) | MIC (K. pneumoniae AR-0347) | MIC (K. pneumoniae BAA-2473) | MIC (K. pneumoniae BAA-2472) | MIC (A. baumannii M13100; M13100) | MIC (K. pneumoniae BAA-2342) | MIC (E. cloacae S28901.1; S28901.1)
0.25 mg/L: MIC (E. coli ΔrfaC JW3596)
0.062 mg/L: MIC (E. coli ΔtolC JW5503) | MIC (S. aureus ATCC 29213; Staphylococcus aureus, ATCC29213, S. aureus ATCC 29213 (+50% Human serum))
32 mg/L: MIC (K. pneumoniae M67198; M67198) | MIC (K. pneumoniae M67297; M67297)
4: Bioactivity (E. coli BAA-2469 [1])
0.03 mg/L: MIC (S. aureus ATCC 29213; Staphylococcus aureus, ATCC29213, S. aureus ATCC 29213)
2 mg/L: MIC (E. coli AR-0349) | MIC (E. coli BAA-2469 [2])
4 mg/L: MIC (K. pneumoniae BAA-2470) | MIC (E. coli AR-0495) | MIC (A. baumannii F19521; F19521) | MIC (E. coli MG1655; MG1655) | MIC (A. baumannii W41979; W41979) | MIC (E. coli AR-0493) | MIC (E. coli BAA-2340) | MIC (E. coli BAA-2471) | MIC (E. coli F20987; F20987)
64 mg/L: MIC (A. baumannii KB357; KB357) | MIC (A. baumannii WO22; WO22) | MIC (A. baumannii KB343; KB343) | MIC (A. baumannii KB304; KB304)
32: Bioactivity (K. pneumoniae BAA-2146)
> 64 mg/L: MIC (P. aeruginosa PA01; PA01)
2 fold: increase in MIC in the presence of serum (S. aureus ATCC 29213)
8 mg/L: MIC (K. pneumoniae BAA-1705) | MIC (K. pneumoniae S47889; S47889) | MIC (E. coli AR-0346) | MIC (E. coli M66623; M66623) | MIC (E. cloacae BAA-2468) | MIC (E. cloacae BAA-2341) | MIC (E. cloacae ATCC 29893)
